Legend:
MGM-1 cells [1] = assay: β-Amyloid regulation of the alternative pathway: ROS (2,7-DCF fluorescence); type: cell-based, human; settings: 50 mM Aβ versus control, p < 0.01
Procedure: β-Amyloid Regulation of the Alternative Pathway: MGM-1 cells were plated on 96 well (~5,000 cells/well, for ROS measurements) or 24 well (~15,000 cells/well, for D measurements) plates (Coming Costar, Acton, MA). At the same time, 1mg Ab (Ab (1-42), AnaSpec Inc., San Jose, CA) was dissolved in 0.5 ml serum-free media and incubated at 4C for aggregation. 24 hours later, cells were incubated in DMEM with 10% fetal bovine serum and […] or […] and 10 mM Vitamin E (Sigma, St. Louis, MO). Control samples were incubated in DMEM with 10% FBS. Cells were incubated at 37C and 6% CO2 for at least 12 hours and processed for ROS generation (see below) or D synthesis as described above for the alternative experiments.
Treatment media was removed and the cells were washed with PBS. The fluorescent probe 2,7- dichlorofluorescin diacetate (2,7-DCF, Molecular Probes, Inc., Eugene, OR) was used to measure levels of oxidative stress (48). Cells were incubated with […] 2,7-DCF, fluorescence was measured at 485nm/535nm using the Victor^2 Multilabel Counter (EG&G Wallac, Gaithersburg, MD) and values of cellular fluorescence were obtained.

MGM-1 cells [2] = assay: β-Amyloid regulation of the alternative pathway: D synthesis; type: cell-based, human; settings: 50 mM Aβ versus control, p < 0.01
Procedure: Alternative Pathway: To determine the amount ofD synthesized by the alternative pathway cells were treated as previously described (15). In brief, cells were washed and oligodendrocytes and astrocytes were incubated with increasing concentrations of FeSO4 in serum free media, with and without SU 10603 (10 mM); neurons were incubated in serum free media containing 5 mM P plus FeSO4, with and without 10 mM SU 10603. After two hours, cells and media were homogenized and extracted as described above. Extracts were run on C18 TLC plates (Whatman, Clifton, NJ) with a mobile phase of 95% methanol (v/v); radiolabeled standards for P, progesterone, and D were run on each plate, and appropriate steroid fractions were collected for each sample. TLC fractions were extracted with 2 ml diethyl ether (Fluka, New York) and evaporated. TLC extracts were assayed by specific radioimmunoassay (RIA). […]
RIA using antibodies specific for each steroid (ICN Pharmaceuticals, Costa Mesa, CA Mesa) was used to measure P, progesterone and D levels. The data were analyzed using the IBM-PC RIA Data Reduction Program (version 4.1) from Jaffe and Associates (Silver Spring, MD). Levels of β-amyloid species in AD and control brain samples were analyzed using 4G8 (Senetex PLC, Napa, CA), a monoclonal antibody to β-amyloid peptide that recognizes amino acids 17-24. […]

Aβ: β-amyloid peptide Ab (1-42), AnaSpec Inc., aggregated; a component of Alzheimer's disease plaques
2,7-DCF fluorescence (ROS) (MGM-1 cells [1]): significant increase | D levels (MGM-1 cells [2]): increased D levels significantly over control
